We go through six compounds from US20080139664A1, “ANTI-GLYCATION AGENTS FOR PREVENTING AGE-, DIABETES-, AND SMOKING-RELATED COMPLICATIONS” (NATIONAL RESEARCH COUNCIL OF CANADA, priority 2001, published 2008).

Series [1] concerns bovine serum albumin (BSA). Description: Maillard fluorescence-based assay of AGEs formation, IC50 determination (BSA + D-ribose). The conditions noted are these: inhibition of Maillard fluorescence development; 0.075 mM BSA, 50 mM D-ribose, 37° C., 5 days.
Procedure: (§1) During the glycation reaction between proteins and reducing sugars, a specific fluorescence with excitation and emission wavelength of 370 nm and 440 nm, respectively, is observed. […] The assay was based on the progressive development of the characteristic Maillard fluorescence (370 nm Ex and 440 nm Em) during the progress of the glycation reaction.
(§2) The final assay volume was 200 μl and each assay well contained 0.075 mM BSA, and 50 mM D-ribose. Compounds were assayed at 3 different concentration levels (0.003, 0.03, and 0.3 mg/mL) to determine the effect of concentration on inhibition. Samples were incubated for 5 days.
(§3) The Maillard fluorescence was directly measured from the reaction solution, except for the anti-glycants that quenched the Maillard fluorescence, which were analyzed by the earlier-described HPLC method.
(§4) Solutions were incubated in microtitre plates (96 wells) at 37° C. for 5 days in a closed system.
(§5) After one hour incubation at 37° C., fluorescence readings were taken.
(§6) The IC50 values of the compounds that quenched the fluorescence of the glycated BSA were analyzed by on-line monitoring of the fluorescence of the glycated BSA separated from the fluorescence quenching assay compound by RP-HPLC. The elution profile was monitored by UV-diode array and by fluorescence (λex=370 nm, λem=440 nm). […] The incubation conditions were the same as above.
In the next series the test system is lysozyme. Briefly: ESI-MS of lysozyme glycoforms after incubation with D-ribose.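 As to all read-outs here: lysozyme incubated with D-ribose, with or without anti-glycation agents, then separated by reversed-phase HPLC and analysed by electrospray mass spectrometry.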 The conditions noted are these: 37° C., 5 days; for Peak area as % of total area of all glycoforms, 14,569: lysozyme + 2D-ribose − 2H2O (14,569 Da); for Peak area as % of total area of all glycoforms, 14,551: lysozyme + 2D-ribose − 3H2O (14,551 Da); for Peak area as % of total area of all glycoforms, 14,533: lysozyme + 2D-ribose − 5H2O (14,533 Da); for Peak area as % of total area of all glycoforms, 14,515: lysozyme + 2D-ribose − 6H2O (14,515 Da); for Peak area as % of total area of all glycoforms, 14,419: lysozyme + D-ribose − 2H2O (14,419 Da); for Peak area as % of total area of all glycoforms, 14,401: lysozyme + D-ribose − 3H2O (14,401 Da); for Peak area as % of total area of all glycoforms, 14,437: lysozyme + D-ribose − H2O (14,437 Da); for Peak area as % of total area of all glycoforms, 14,496: lysozyme + D-ribose − H2O with one carboxymethylated Lys residue (14,496 Da); for Peak area as % of total area of all glycoforms, 14,364: lysozyme with one carboxymethylated Lys residue (14,364 Da); for Peak area as % of total area of all glycoforms, 14,305: unmodified lysozyme (14,305 Da).

Series [2] has as its system bovine serum albumin (BSA). Description: SDS-PAGE assessment of BSA-BSA protein cross-links. Also: key: ++: strongly suppressed; +: suppressed; −: no suppression; *: moderate acceleration of the cross-linking. In kind it is biochemical. The conditions noted are these: mixtures further incubated for 4 weeks. The method, then:
Additionally, protein cross-links were semi-quantitatively assessed by SDS PAGE gel chromatography.
Protein-protein cross-links were characterized by SDS-PAGE. The incubation mixtures used for determination of the amino groups were further incubated for 4 weeks. An aliquot of the solution was applied to Pharmacia SDS FAST gel and the proteins were stained with Coomassie blue.

The subject of series [3] is bovine serum albumin (BSA). Description: Fluorescamine assay of free primary amino groups of BSA incubated with D-ribose. The conditions noted are these: free primary amino group on BSA after 5 days at 37° C.; agent at 16.8 times IC50; 64% without agent. In kind it is biochemical.
In series [4] the test system is bovine serum albumin (BSA).
Procedure: as §1, §2, §3, §4, §5, §6
In another series the test system is dopaminergic neurons. The conditions noted are these: cited from earlier work.
Another series relates to human eye. The conditions noted are these: topical administration of up to 20%; cited from earlier work.

Like-named read-outs stand apart in the source and are kept apart here.

The IC50 is the concentration that gives 50% inhibition. For the compound `Cc1cc(-c2ccc(/N=N/c3c(S(=O)(=O)O)cc4cc(S(=O)(=O)O)cc(N)c4c3O)c(C)c2)ccc1/N=N/c1c(S(=O)(=O)O)cc2cc(S(=O)(=O)O)cc(N)c2c1O` [Trypan blue], in series [1], the IC50 came out at 240 µM. In addition, in the series on lysozyme, the “Peak area as % of total area of all glycoforms, 14,569” value (“Peak area as % of total area … 14,569” below) was 4.6%; the “Peak area as % of total area of all glycoforms, 14,551” value (“Peak area as % of total area … 14,551” for short) is given as 3.4%; the “Peak area as % of total area of all glycoforms, 14,533” value (from here on “Peak area as % of total area … 14,533”) is recorded as 1.9%; the “Peak area as % of total area of all glycoforms, 14,515” value (from here on “Peak area as % of total area … 14,515”) turned out to be 1.6%. Further, in the series on lysozyme, the “Peak area as % of total area of all glycoforms, 14,419” value (from here on “Peak area as % of total area … 14,419”) was determined as 5.6%; the “Peak area as % of total area of all glycoforms, 14,401” value (from here on “Peak area as % of total area … 14,401”) was found to be 3.0%; the “Peak area as % of total area of all glycoforms, 14,437” value (from here on “Peak area as % of total area … 14,437”) worked out at 20.2%; the “Peak area as % of total area of all glycoforms, 14,496” value (from here on “Peak area as % of total area … 14,496”) is recorded as 2.1%. Further, in the series on lysozyme, the “Peak area as % of total area of all glycoforms, 14,364” value (from here on “Peak area as % of total area … 14,364”) is 3.7% and the “Peak area as % of total area of all glycoforms, 14,305” value (from here on “Peak area as % of total area … 14,305”) turned out to be 49.8%. Besides, the “Suppression of BSA-BSA cross-links” value in series [2] was “+”. In series [3], this compound gave an Unreacted amino group of 60%.
On to `O=C1c2c(O)ccc(O)c2C(=O)c2c(NCCNCCO)ccc(NCCNCCO)c21` [Mitoxantrone], for which, in the series with lysozyme, the “Peak area as % of total area … 14,569” value is on record as 5.9%; the “Peak area as % of total area … 14,551” value was 3.6%; the “Peak area as % of total area … 14,533” value stood at 1.3%; the “Peak area as % of total area … 14,515” value is 0.8%. Moreover, in the series on lysozyme, the “Peak area as % of total area … 14,419” value amounted to 6.5%; the “Peak area as % of total area … 14,401” value was determined as 1.9%; the “Peak area as % of total area … 14,437” value came out at 25.2%; the “Peak area as % of total area … 14,496” value amounted to 1.0%. Also, in the series on lysozyme, the “Peak area as % of total area … 14,364” value came to 1.6% and the “Peak area as % of total area … 14,305” value was 49.8%. The same compound displayed an IC50 in series [4] of 630 µM. The “Suppression of BSA-BSA cross-links” value in series [2] is listed as “+”. Also, the Unreacted amino group in series [3] turned out to be 50%.
`N=C(N)NN` [Aminoguanidine]: the IC50 in series [1] came to 345 µM. For the same compound, the “amount of (AP-H2O) glycoform of lysozyme” value in the series with lysozyme (FIG. 2, in words) is “reduced”. Moreover, in the series on lysozyme, the “Peak area as % of total area … 14,569” value amounted to 5.7%; the “Peak area as % of total area … 14,551” value came to 1.2%; the “Peak area as % of total area … 14,533” value is reported as 1.1%; the “Peak area as % of total area … 14,515” value is 0.7%. For the same compound, in the series with lysozyme, the “Peak area as % of total area … 14,419” value is given as 2.6%; the “Peak area as % of total area … 14,401” value worked out at 2.1%; the “Peak area as % of total area … 14,437” value worked out at 26.2%; the “Peak area as % of total area … 14,496” value is given as 1.4%. In the series on lysozyme, the “Peak area as % of total area … 14,364” value turned out to be 3.2% and the “Peak area as % of total area … 14,305” value was found to be 54.5%. Moreover, the “Suppression of BSA-BSA cross-links” value in series [2] was “+”. The compound also returned an Unreacted amino group in series [3] of 68%.
A word on the EC50: it is the concentration that produces a half-maximal response. On to `NC[C@H](O)c1ccc(O)c(O)c1` [noradrenaline], for which the EC50 with dopaminergic neurons (read-out: EC50, reduction of oxidative stress related to glycation) was ~0.3 µM. Moreover, the “concentrations of intracellular reactive oxygen species” value in the series on dopaminergic neurons (treatment with 1 μM) was “drastically reduced”.
Consider `CC(C)NCC(O)c1ccc(O)c(O)c1.Cl` [D-isoproterenol hydrochloride], for which the “effect on intra-ocular pressure” value in the series with human eye is “did not lower intra-ocular pressure”.
As to `CCC(NC(C)C)C(O)c1ccc(O)c(O)c1` (centres unmarked) [Isoetharine], in series [1], the IC50 is 25 µM. In the series on lysozyme, the “Peak area as % of total area … 14,569” value was 1.6%; the “Peak area as % of total area … 14,551” value came out at 0.7%; the “Peak area as % of total area … 14,533” value was 0.9%; the “Peak area as % of total area … 14,515” value is given as 0.9%. In the series with lysozyme, the “Peak area as % of total area … 14,419” value is recorded as 1.6%; the “Peak area as % of total area … 14,401” value was found to be 1.3%; the “Peak area as % of total area … 14,437” value stood at 14.3%; the “Peak area as % of total area … 14,496” value was determined as 1.4%. Besides, in the series with lysozyme, the “Peak area as % of total area … 14,364” value amounted to 3.9% and the “Peak area as % of total area … 14,305” value was determined as 73.4%. Further, the “Suppression of BSA-BSA cross-links” value in series [2] is “+”. Besides, in series [3], the Unreacted amino group is on record as 70%.
